Data from patent publication US10766865B2, “PKM2 modulators and methods for their use” (TOLERO PHARMACEUTICALS, INC., priority 2012, dated 2020).

Biological target: PKM2 (Homo sapiens, UniProt P14618)
Test: PKM2 Biochemical Assay
Settings: for Max. Resp.: % maximum response in a biochemical assay as compared with Fructose 1,6-bisphosphate
Experimental: Full length, human PKM2 enzyme was obtained from Promab (Richmond, Calif.). All reagents, unless otherwise noted, were obtained from Sigma (St. Louis, Mo.).
Compounds were pre-incubated with 2 nM PKM2 in reaction buffer (50 mM Tris-HCl, pH 8.0, 200 mM KCl, 30 mM MgCl2, 2 mM DTT, 5% DMSO) for 30 min at ambient temperature. […] After 30 min, ATP formation was measured by Kinase Glo (Promega, Madison, Wis.), and AC50 values were determined using Prism (GraphPad Software, Inc., La Jolla, Calif.).

Chain of PKM2 (P14618 whole entry): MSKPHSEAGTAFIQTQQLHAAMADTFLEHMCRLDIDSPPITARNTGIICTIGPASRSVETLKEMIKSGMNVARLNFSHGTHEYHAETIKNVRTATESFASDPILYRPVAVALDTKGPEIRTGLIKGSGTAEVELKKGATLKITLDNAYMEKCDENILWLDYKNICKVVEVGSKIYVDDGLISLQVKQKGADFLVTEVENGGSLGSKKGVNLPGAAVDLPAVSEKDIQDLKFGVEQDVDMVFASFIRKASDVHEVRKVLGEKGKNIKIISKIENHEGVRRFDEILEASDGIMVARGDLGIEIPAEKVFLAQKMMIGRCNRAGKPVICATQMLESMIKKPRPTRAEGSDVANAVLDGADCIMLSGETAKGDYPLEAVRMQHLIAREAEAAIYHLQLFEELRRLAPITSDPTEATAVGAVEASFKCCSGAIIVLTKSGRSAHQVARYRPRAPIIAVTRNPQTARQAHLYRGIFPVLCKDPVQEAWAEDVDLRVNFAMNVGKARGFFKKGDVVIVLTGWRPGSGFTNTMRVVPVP

| Max. Resp. | AC50 | SMILES |
| --- | --- | --- |
| 100% | – | O=C(c1cc(C(F)(F)F)n[nH]1)N(CCN1CCCCCC1)Cc1ccc(O)cc1F [Example 195, N-(2-fluoro-4-hydroxybenzyl)-N-(2-(azepan-1-yl)ethyl)-3-(trifluoromethyl)-1H-pyrazole-5-carboxamide] |
| 100% | – | Nc1ccc(Cl)c(CN(CCN2CCCCCC2)C(=O)c2cc(C(F)(F)F)n[nH]2)c1 [Example 196, N-(5-amino-2-chlorobenzyl)-N-(2-(azepan-1-yl)ethyl)-3-(trifluoromethyl)-1H-pyrazole-5-carboxamide] |
| 100% | – | O=C(c1cc(C(F)(F)F)n[nH]1)N(CCN1CCCCCC1)Cc1ccccc1F [Example 197, N-(2-fluorobenzyl)-N-(2-(azepan-1-yl)ethyl)-3-(trifluoromethyl)-1H-pyrazole-5-carboxamide] |
| 100% | – | O=C(c1cc(C(F)(F)F)n[nH]1)N(CCN1CCCCCC1)Cc1c(F)cccc1F [Example 198, N-(2,6-difluorobenzyl)-N-(2-(azepan-1-yl)ethyl)-3-(trifluoromethyl)-1H-pyrazole-5-carboxamide] |
| 100/100% | – | CCC1CCN(CCN(Cc2ccccc2Cl)C(=O)c2cc(C(F)(F)F)n[nH]2)CC1 [Example 199, N-(2-chlorobenzyl)-N-(2-(4-ethylpiperidin-1-yl)ethyl)-3-(trifluoromethyl)-1H-pyrazole-5-carboxamide] |
| 100% | – | CC1CCCN(CCN(Cc2cc(N)ccc2Cl)C(=O)c2cc(C(F)(F)F)n[nH]2)C1 (stereo not drawn) [Example 200, N-(5-amino-2-chlorobenzyl)-3-(trifluoromethyl)-N-(2-(3-methylpiperidin-1-yl)ethyl)-1H-pyrazole-5-carboxamide] |
| 100% | – | CC1CCCN(CCN(Cc2ccccc2F)C(=O)c2cc(C(F)(F)F)n[nH]2)C1 (stereo not drawn) [Example 201, N-(2-fluorobenzyl)-3-(trifluoromethyl)-N-(2-(3-methylpiperidin-1-yl)ethyl)-1H-pyrazole-5-carboxamide] |
| 100% | – | CC1CCCCN1CCN(Cc1cc(N)ccc1Cl)C(=O)c1cc(C(F)(F)F)n[nH]1 (stereo not drawn) [Example 202, N-(5-amino-2-chlorobenzyl)-3-(trifluoromethyl)-N-(2-(2-methylpiperidin-1-yl)ethyl)-1H-pyrazole-5-carboxamide] |
| 100% | – | CC1CCCCN1CCN(Cc1ccccc1F)C(=O)c1cc(C(F)(F)F)n[nH]1 (stereo not drawn) [Example 203, N-(2-fluorobenzyl)-3-(trifluoromethyl)-N-(2-(2-methylpiperidin-1-yl)ethyl)-1H-pyrazole-5-carboxamide] |
| 53% | – | CCN(CCN(Cc1ccccc1Cl)C(=O)c1cc(C(F)(F)F)n[nH]1)C(C)C [Example 204, N-(2-chlorobenzyl)-N-(2-(ethyl-isopropylamino)ethyl)-3-(trifluoromethyl)-1H-pyrazole-5-carboxamide] |
| 100% | – | O=C(c1cc(C(F)(F)F)n[nH]1)N(CCN1CCC(F)(F)CC1)Cc1ccccc1Cl [Example 205, N-(2-chlorobenzyl)-3-(trifluoromethyl)-N-(2-(4,4-difluoropiperidin-1-yl)ethyl)-1H-pyrazole-5-carboxamide] |
| 100% | – | O=C(c1cc(C(F)(F)F)n[nH]1)N(CCN1CCCC1)Cc1cccc2[nH]cc(F)c12 [Example 206, N-((3-fluoro-1H-indol-4-yl)methyl)-3-(trifluoromethyl)-N-(2-(pyrrolidin-1-yl)ethyl)-1H-pyrazole-5-carboxamide] |
| 75% | – | Nc1ccc(CN(CCN2CCCCCC2)C(=O)c2cc(C(F)(F)F)n[nH]2)c(Cl)c1 [Example 207, N-(4-amino-2-chlorobenzyl)-N-(2-(azepan-1-yl)ethyl)-3-(trifluoromethyl)-1H-pyrazole-5-carboxamide] |
| 100% | – | O=C(c1cc(C(F)(F)F)n[nH]1)N(CCN1CCCCCC1)Cc1cccc2nc[nH]c12 [Example 208, N-((1H-benzo[d]imidazol-7-yl)methyl)-N-(2-(azepan-1-yl)ethyl)-3-(trifluoromethyl)-1H-pyrazole-5-carboxamide] |
| 100% | – | CCCN(CC)CCN(Cc1ccccc1Cl)C(=O)c1cc(C(F)(F)F)n[nH]1 [Example 209, N-(2-chlorobenzyl)-N-(2-(ethyl-propylamino)ethyl)-3-(trifluoromethyl)-1H-pyrazole-5-carboxamide] |
| 100% | – | O=C(c1cc(C(F)(F)F)n[nH]1)N(CCN1CCCCCC1)Cc1cccc([N+](=O)[O-])c1Cl [Example 210, N-(2-chloro-3-nitrobenzyl)-N-(2-(azepan-1-yl)ethyl)-3-(trifluoromethyl)-1H-pyrazole-5-carboxamide] |
| 100% | – | O=C(c1cc(C(F)(F)F)n[nH]1)N(CCN1CCCCCC1)Cc1c(Cl)cccc1[N+](=O)[O-] [Example 211, N-(2-chloro-6-nitrobenzyl)-N-(2-(azepan-1-yl)ethyl)-3-(trifluoromethyl)-1H-pyrazole-5-carboxamide] |
| 53% | – | CC1CCCC(C)N1CCN(Cc1ccccc1Cl)C(=O)c1cc(C(F)(F)F)n[nH]1 (stereo not drawn) [Example 212, N-(2-chlorobenzyl)-3-(trifluoromethyl)-N-(2-(2,6-dimethylpiperidin-1-yl)ethyl)-1H-pyrazole-5-carboxamide] |

| Max. Resp. | AC50 | SMILES |
| --- | --- | --- |
| 100% | – | Nc1cccc(CN(CCN2CCCCCC2)C(=O)c2cc(C(F)(F)F)n[nH]2)c1Cl [Example 213, N-(3-amino-2-chlorobenzyl)-N-(2-(azepan-1-yl)ethyl)-3-(trifluoromethyl)-1H-pyrazole-5-carboxamide] |
| 100% | – | Nc1ccc(F)c(CN(CCN2CCCCCC2)C(=O)c2cc(C(F)(F)F)n[nH]2)c1 [Example 214, N-(5-amino-2-fluorobenzyl)-N-(2-(azepan-1-yl)ethyl)-3-(trifluoromethyl)-1H-pyrazole-5-carboxamide] |
| 100% | – | COc1ccc(N)cc1CN(CCN1CCCCCC1)C(=O)c1cc(C(F)(F)F)n[nH]1 [Example 215, N-(5-amino-2-methoxybenzyl)-N-(2-(azepan-1-yl)ethyl)-3-(trifluoromethyl)-1H-pyrazole-5-carboxamide] |
| 100% | – | Nc1cccc(CN(CCN2CCCCCC2)C(=O)c2cc(C(F)(F)F)n[nH]2)c1F [Example 216, N-(3-amino-2-fluorobenzyl)-N-(2-(azepan-1-yl)ethyl)-3-(trifluoromethyl)-1H-pyrazole-5-carboxamide] |
| 100% | – | COc1c(N)cccc1CN(CCN1CCCCCC1)C(=O)c1cc(C(F)(F)F)n[nH]1 [Example 217, N-(3-amino-2-methoxybenzyl)-N-(2-(azepan-1-yl)ethyl)-3-(trifluoromethyl)-1H-pyrazole-5-carboxamide] |
| 100% | – | Nc1cccc(Cl)c1CN(CCN1CCCCCC1)C(=O)c1cc(C(F)(F)F)n[nH]1 [Example 218, N-(2-amino-6-chlorobenzyl)-N-(2-(azepan-1-yl)ethyl)-3-(trifluoromethyl)-1H-pyrazole-5-carboxamide] |
| 100% | – | O=C(c1cc(C(F)(F)F)n[nH]1)N(CCN1CCC(O)CC1)Cc1ccccc1Cl [Example 219, N-(2-chlorobenzyl)-3-(trifluoromethyl)-N-(2-(4-hydroxypiperidin-1-yl)ethyl)-1H-pyrazole-5-carboxamide] |
| 100% | – | O=C(c1cc(C(F)(F)F)n[nH]1)N(CCN1CCCC(O)C1)Cc1ccccc1Cl (stereo not drawn) [Example 220, N-(2-chlorobenzyl)-3-(trifluoromethyl)-N-(2-(3-hydroxypiperidin-1-yl)ethyl)-1H-pyrazole-5-carboxamide] |
| 60% | – | CC(CN(Cc1c(N)cccc1Cl)C(=O)c1cc(C(F)(F)F)n[nH]1)N1CCCC1 (stereo not drawn) [Example 221, N-(2-amino-6-chlorobenzyl)-3-(trifluoromethyl)-N-(2-(pyrrolidin-1-yl)propyl)-1H-pyrazole-5-carboxamide] |
| 100% | – | Nc1cccc(Cl)c1CN(CCN1CCCC1)C(=O)c1cc(C(F)(F)F)n[nH]1 [Example 222, N-(2-amino-6-chlorobenzyl)-3-(trifluoromethyl)-N-(2-(pyrrolidin-1-yl)ethyl)-1H-pyrazole-5-carboxamide] |
| 100% | – | Nc1cccc(Cl)c1CN(CCN1CCS(=O)(=O)CC1)C(=O)c1cc(C(F)(F)F)n[nH]1 [Example 224, N-(2-amino-6-chlorobenzyl)-N-(2-(4-dioxothiomorpholino)ethyl)-3-(trifluoromethyl)-1H-pyrazole-5-carboxamide] |
| 100% | – | Nc1cccc(Cl)c1CN(CCN1CCCC(O)C1)C(=O)c1cc(C(F)(F)F)n[nH]1 (stereo not drawn) [Example 225, N-(2-amino-6-chlorobenzyl)-3-(trifluoromethyl)-N-(2-(3-hydroxypiperidin-1-yl)ethyl)-1H-pyrazole-5-carboxamide] |
| 100% | – | CS(=O)(=O)N1CCCC(CCN(Cc2ccccc2Cl)C(=O)c2cc(C(F)(F)F)n[nH]2)C1 (stereo not drawn) [Example 228, N-(2-chlorobenzyl)-N-(2-(1-(methylsulfonyl)piperidin-3-yl)ethyl)-3-(trifluoromethyl)-1H-pyrazole-5-carboxamide] |
| 100% | – | O=C(c1cc(C(F)(F)F)n[nH]1)N(CCc1ccc(O)cc1)Cc1ccccc1Cl [Example 230, N-(2-chlorobenzyl)-N-(4-hydroxyphenethyl)-3-(trifluoromethyl)-1H-pyrazole-5-carboxamide] |
| 65% | 148 nM | CCN1CCCC1CN(Cc1ccccc1Cl)C(=O)c1cc(C(F)(F)F)n[nH]1 (stereo not drawn) [Example 231, N-(2-chlorobenzyl)-N-((1-ethylpyrrolidin-2-yl)methyl)-3-(trifluoromethyl)-1H-pyrazole-5-carboxamide] |
| 85% | – | O=C(c1cc(C(F)(F)F)n[nH]1)N(Cc1ccccc1Cl)CC1CCCN1 (stereo not drawn) [Example 232, N-(2-chlorobenzyl)-3-(trifluoromethyl)-N-((pyrrolidin-2-yl)methyl)-1H-pyrazole-5-carboxamide] |
| 75% | – | Nc1cccc(Cl)c1CN(CC1CCN1)C(=O)c1cc(C(F)(F)F)n[nH]1 (stereo not drawn) [Example 233, N-(2-amino-6-chlorobenzyl)-N-((azetidin-2-yl)methyl)-3-(trifluoromethyl)-1H-pyrazole-5-carboxamide] |
